Data set [1] relates to RECK gene. Put plainly: RECK expression in human hepatocytes, real-time PCR. The format is cell-based. Particulars: 1 μM, 24 hours of treatment, p<0.05. As for the experimental part:
Confluent monolayers of human hepatocytes in 24-well plates, cultured in InVitroGRO HI medium, were treated with DMSO vehicle or Compound A. After 24 hours of treatment, the cells were harvested and RNA was prepared for real time PCR analysis.
RECK expression was normalized to GAPDH, and the mean level of RECK expression in DMSO treated cells was defined as 1.0. The data are presented as the mean ± SEM from triplicate determinations.
Background: In qPCR the cycle at which signal appears reflects the starting amount.

Data set [2] deals with RECK gene. Briefly: Kinetics of induction of RECK expression in liver after a single dose, wildtype and FXR deficient mice. Particulars: wildtype mice, single dose 30 mg/kg by oral gavage. The format is in vivo, mouse. Here is the method: Wildtype or FXR deficient male and female mice were administered a single dose of vehicle or 30 mg/kg Compound A by oral gavage. Mice were euthanized at various times after treatment and real-time PCR analysis of liver RNA was performed.
RECK expression levels were normalized to GAPDH, and the mean level of RECK expression at t=0 was defined as 1.0. […] The kinetics of induction of RECK expression by Compound A are consistent with direct induction of RECK expression by FXR activation.

In data set [3] the test system is RECK gene. Briefly: RECK expression in liver of male LDLR deficient mice, real-time PCR of liver RNA. Particulars: Western diet, 30 mg/kg by gavage once a day for 7 days, liver RNA 4 h after final treatment, p<0.01. The class given is in vivo, mouse. Here is the method:
Male LDLR deficient mice, fed a Western diet, were administered vehicle or 30 mg/kg Compound A [isopropyl 3-(3,4-difluorobenzoyl)-1,1-dimethyl-1,2,3,6-tetrahydroazepino[4,5-b]indole-5-carboxylate] by gavage once a day for 7 days. Four hours after the final treatment, mice were euthanized and real-time PCR analysis of liver RNA was performed.
RECK expression levels were normalized to GAPDH and the mean level of RECK expression in vehicle treated mice was defined as 1.0. Data are presented as the mean ± standard error of the mean (SEM). 6 mice were tested in each group.

Data set [4] deals with RECK gene. Briefly: RECK expression in liver of wildtype, FXR deficient and SHP deficient mice, real-time PCR of liver RNA. The class given is in vivo, mouse. Conditions: 30 mg/kg by gavage once a day for 7 days. Here is the method: Wildtype or FXR deficient mice on the C57B1/6 background and wildtype or SHP deficient mice on the 129 background were fed a standard chow diet. Mice were administered vehicle or 30 mg/kg Compound A by gavage once a day for 7 days. Four hours after the final treatment, mice were euthanized and real-time PCR analysis of liver RNA was performed.
RECK expression levels were normalized to GAPDH and the mean level of RECK expression in vehicle treated female C57B1/6 mice was defined as 1.0. Data are presented as the mean ±SEM. 6 mice were tested in each group. […] (p<0.01). […] (p<0.01).

In data set [5] the test system is RECK gene. Briefly: RECK expression in mouse primary hepatocytes, real-time PCR. The class given is cell-based. Conditions: 1 μM; for RECK expression, fold induction relative to t=0: normalized to GAPDH, p<0.01. Here is the method:
Mouse primary hepatocytes were plated at 1.5×10^5 cells per well in 24-well plates and cultured in Williams E medium supplemented with 15 mM HEPES pH 7.4, 1% insulin-transferrin-selenium supplement, 1 nM dexamethasone, 50 U/ml penicillin, and 50 μg/ml streptomycin. Cells were treated with DMSO vehicle or with the FXR agonists, Compound A or Compound B ((E)-3-(2-chloro-4-((3-(2,6-dichlorophenyl)-5-isopropylisoxazol-4-yl)methoxy)styryl)benzoic acid). Cells were harvested at various times after treatment and RNA was prepared for real-time PCR analysis.
RECK expression levels were normalized to GAPDH and the mean level of RECK expression at t=0 was defined as 1.0.

On to `CC(C)OC(=O)C1=CN(C(=O)c2ccc(F)c(F)c2)CC(C)(C)c2c1[nH]c1ccccc21` [Compound A, isopropyl 3-(3,4-difluorobenzoyl)-1,1-dimethyl-1,2,3,6-tetrahydroazepino[4,5-b]indole-5-carboxylate], for which the “RECK expression (normalized to GAPDH, DMSO = 1.0)” value in the data set with RECK gene [1] was “induced expression of the RECK gene”. Further, the “RECK expression, fold induction relative to t=0” value in the data set on RECK gene [2] (liver RNA) and in the data set with RECK gene [5] was “induced RECK expression” in each case. Besides, the “Time after administration at which induction of RECK expression was observed” value in the data set with RECK gene [2] (expression continued to increase at later time points, p<0.01) is not above 2 h. In addition, in the data set with RECK gene [3], the “RECK expression (normalized to GAPDH, vehicle = 1.0)” value was “RECK expression is induced”. In addition, the “RECK expression (normalized to GAPDH)” value in the data set on RECK gene [4] (FXR deficient mice (C57B1/6 background)) is on record as “failed to induce RECK expression”; in the data set with RECK gene [4] (SHP deficient mice (129 background), p=0.02 in males, p<0.01 in females), “induction of RECK expression was observed”; in the data set on RECK gene [4] (male and female wildtype C57B1/6 mice, p<0.01), “induced expression of the RECK gene”. The “Induction of RECK expression, female compared to male” value is on record as “enhanced compared to male 129 mice” with RECK gene [4] (wildtype 129 mice, p<0.01) and “Enhanced induction of RECK expression was observed in female compared to male” with RECK gene [4] (wildtype C57B1/6 mice). In addition, in the data set with RECK gene [5], the “Time of peak RECK expression following treatment” value was 4 h.

Regarding `CC(C)c1onc(-c2c(Cl)cccc2Cl)c1COc1ccc(/C=C/c2cccc(C(=O)O)c2)c(Cl)c1` [Compound B, (E)-3-(2-chloro-4-((3-(2,6-dichlorophenyl)-5-isopropylisoxazol-4-yl)methoxy)styryl)benzoic acid, reference compound], in the data set with RECK gene [5], the “Time of peak RECK expression following treatment” value was 4 h and the “RECK expression, fold induction relative to t=0” value is “induced RECK expression”.

(Values after US20080299118A1, “FXR Agonists for the Treatment of Malignancies” (Wyeth, priority 2007, published 2008).)
